We go through 26 compounds from patent US9540391B2, “Isomannide derivatives as inhibitors of soluble epoxide hydrolase” (SANOFI, priority 2013, dated 2017).

Counter-ions that a name gives are not always drawn.

The target in the assay is T1, recombinant sEH (Homo sapiens, UniProt P34913).
T1 construct: made in house; host or cells: Sf9 insect cells
T1 sequence (P34913 1-555): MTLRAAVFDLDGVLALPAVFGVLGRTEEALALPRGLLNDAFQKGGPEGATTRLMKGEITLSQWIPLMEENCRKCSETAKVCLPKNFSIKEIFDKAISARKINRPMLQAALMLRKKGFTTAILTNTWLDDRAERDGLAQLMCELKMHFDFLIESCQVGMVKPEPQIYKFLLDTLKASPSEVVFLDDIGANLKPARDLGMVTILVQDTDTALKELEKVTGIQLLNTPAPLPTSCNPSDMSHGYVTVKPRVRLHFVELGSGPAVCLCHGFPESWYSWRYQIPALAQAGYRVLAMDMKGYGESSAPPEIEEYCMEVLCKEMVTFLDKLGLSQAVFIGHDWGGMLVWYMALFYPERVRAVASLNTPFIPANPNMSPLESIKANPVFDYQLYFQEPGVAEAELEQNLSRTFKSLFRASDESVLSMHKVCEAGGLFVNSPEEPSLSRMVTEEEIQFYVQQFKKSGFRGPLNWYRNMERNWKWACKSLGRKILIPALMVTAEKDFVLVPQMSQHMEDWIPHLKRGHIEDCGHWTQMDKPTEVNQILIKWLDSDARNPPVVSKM
As to the kind of experiment: biochemical screening assay for inhibition of soluble epoxide hydrolase (fluorometric, Phome substrate). The procedure: The ability of the compounds of the formula I to inhibit soluble epoxide hydrolase can be determined as follows:
Compounds were tested in a biochemical screening assay using recombinant sEH purified from Sf9 insect cells and an artificial substrate, (3-phenyl-oxiranyl)-acetic acid cyano-(6-methoxy-naphtalen-2-yl)-methyl ester, Phome. The biochemical assay was performed in analogy to a fluorometric method described in the literature (P. D. Jones et al., Anal. Biochem. 2005, 343, 66-75). The assay principle bases on the sEH-catalyzed hydrolysis of an artificial α-cyano-ester substrate. 0-deacetylation liberates a cyanohydrin intermediate that rapidly decomposes to the highly fluorescent 6-methoxy-2-naphtaldehyde. To discriminate sample autofluorescence, the assay was carried out as a kinetic measurement with two time points. The first measurement is performed immediately before addition of the substrate and the second measurement is done after completion of the assay. The assay format is either in 96- or in 384-well format. Details of the assay using a 96-well plate format are described below. 40 μL recombinant sEH enzyme and 5 μL test compound are pre-incubated for 15 minutes at 30° C. Following pre-incubation, the reaction is started by addition of 5 μL Phome. The assay mixture containing 2 nM final sEH concentration, test compound ranging in a concentration from 0.0001-10 μM and 5 μM Phome is incubated for 60 minutes at 30° C.
Fluorescence can be measured with any suitable detector for instance a TECAN Safire or Tecan Ultra at […]. % inhibition of recombinant sEH activity is used for calculation of corresponding IC50 values as illustrated and described in the examples.
The NCBI gene bank reference sequence with the accession number NM_001979 for EPHX2/sEH was applied for recombinant protein production:
The following commercially available materials have been used: • Incubation reagent: 25 mM Hepes (Sigma-Aldrich, Cat. No H-3375), 0.01% bovine albumin (Sigma-Aldrich Cat. No PA9205) • Substrate: 3-Phenyl-oxiranyl)-acetic acid cyano-(6-methoxy-naphtalen-2-yl)-methyl ester, Phome (Biozol Cat. No 10003134) • Microtiter plates: 96-well plates (Greiner Cat. No 655180; Costar Cat. No 3915)
With `O=C(NC1CCCCC1)N[C@H]1CO[C@H]2[C@@H]1OC[C@@H]2Sc1ncccn1` [Example 46, 1-Cyclohexyl-3-[(3S,3aR,6S,6aS)-6-(pyrimidin-2-ylsulfanyl)-hexahydro-furo[3,2-b]furan-3-yl]-urea], the IC50 was found to be 0.05 µM. For `Cc1ncccc1O[C@H]1CO[C@H]2[C@@H]1OC[C@@H]2NC(=O)NC1CC(=O)N(c2ccccc2)C1` (stereo partly drawn) [Example 247, 1-[(3S,3aR,6S,6aS)-6-(2-Methyl-pyridin-3-yloxy)-hexahydro-furo[3,2-b]furan-3-yl]-3-(5-oxo-1-phenyl-pyrrolidin-3-yl)-urea] the value was 0.065 µM; for `N#Cc1ccc(S[C@H]2CO[C@H]3[C@@H]2OC[C@@H]3NC(=O)NC2CCCCC2)nc1` [Example 60, 1-[(3S,3aR,6S,6aS)-6-(5-Cyano-pyridin-2-ylsulfanyl)-hexahydro-furo[3,2-b]furan-3-yl]-3-cyclohexyl-urea], 0.004 µM. `O=C(NC1CCCCC1)N[C@H]1CO[C@H]2[C@@H]1OC[C@@H]2Oc1cccc(Cl)c1` [Example 132, 1-[(3S,3aR,6S,6aS)-6-(3-Chloro-phenoxy)-hexahydro-furo[3,2-b]furan-3-yl]-3-cyclohexyl-urea]: the IC50 is 0.002 µM. In the case of `Cc1ncccc1O[C@H]1CO[C@H]2[C@@H]1OC[C@@H]2NC(=O)NCC1CCCO1` (stereo partly drawn) [Example 176, 1-[(3S,3aR,6S,6aS)-6-(2-Methyl-pyridin-3-yloxy)-hexahydro-furo[3,2-b]furan-3-yl]-3-(tetrahydro-furan-2-ylmethyl)-urea], the IC50 stood at 1.45 µM. As for `Cc1nc(CNC(=O)N[C@H]2CO[C@H]3[C@@H]2OC[C@@H]3Oc2cccnc2C)cs1` [Example 227, 1-[(3S,3aR,6S,6aS)-6-(2-Methyl-pyridin-3-yloxy)-hexahydro-furo[3,2-b]furan-3-yl]-3-(2-methyl-thiazol-4-ylmethyl)-urea], the IC50 came out at 1.68 µM. For `Cc1ncccc1OC1COC2C(NC(=O)NC3CC4CCC3(C)C4(C)C)COC12` [Example 173, 1-[(2R,3aS,5S,6S)-6-(2-Methyl-pyridin-3-yloxy)-hexahydro-furo[3,2-b]furan-3-yl]-3-((1R,2S,4R)-1,7,7-trimethyl-bicyclo[2.2.1]hept-2-yl)-urea] the value was 0.005 µM. For `O=C(NC1CCCCC1)N[C@H]1CO[C@H]2[C@@H]1OC[C@@H]2Oc1ccc(C(F)(F)F)nc1` [Example 42, 1-Cyclohexyl-3-[(3S,3aR,6S,6aS)-6-(6-trifluoromethyl-pyridin-3-yloxy)-hexahydro-furo[3,2-b]furan-3-yl]-urea] the value was 0.047 µM; for `O=C(Nc1ccc2c(c1)OCO2)NC1COC2C(CCc3ccccc3)COC12` [Example 348, 1-Benzo[1,3]dioxol-5-yl-3-((3S,3aR,6S,-6aR)-6-phenethyl-hexahydro-furo[3,2-b]furan-3-yl)-urea], 0.229 µM.

For the compound `Cc1cc(C)cc(NC(=O)NC2COC3C(C#N)COC23)c1` (centres unmarked) [Example 381], the IC50 is 0.108 µM.

In the case of `Cc1ncccc1OC1COC2C(NC(=O)NCC3CCCCC3(C)O)COC12` [Example 242, 1-((1R,2R)-2-Hydroxy-2-methyl-cyclohexylmethyl)-3-[(3S,3aR,6S,-6aS)-6-(2-methyl-pyridin-3-yloxy)-hexahydro-furo[3,2-b]furan-3-yl]-urea], the IC50 stood at 0.037 µM. For `O=C(NC1CCCCC1)N[C@H]1CO[C@H]2[C@@H]1OC[C@@H]2SCCO` [Example 14, 1-Cyclohexyl-3-[(3S,3aR,6S,6aS)-6-(2-hydroxy-ethylsulfanyl)-hexahydro-furo[3,2-b]furan-3-yl]-urea] the value was 0.019 µM; for `Cc1ncccc1O[C@H]1CO[C@H]2[C@@H]1OC[C@@H]2NC(=O)NC1CC(=O)N(C(C)C)C1` (stereo partly drawn) [Example 246, 1-(1-Isopropyl-5-oxo-pyrrolidin-3-yl)-3-[(3S,3aR,6S,6aS)-6-(2-methyl-pyridin-3-yloxy)-hexahydro-furo[3,2-b]furan-3-yl]-urea], 0.317 µM; for `COc1cccc([C@@H](C)NC(=O)N[C@H]2CO[C@H]3[C@@H]2OC[C@@H]3Oc2ccc(F)cc2)c1` [Example 155, 1-[(3S,3aR,6S,6aS)-6-(4-Fluoro-phenoxy)-hexahydro-furo[3,2-b]furan-3-yl]-3-[(R)-1-(3-methoxy-phenyl)-ethyl]-urea], 0.038 µM.

`O=C(Nc1cccc(F)c1)N[C@H]1CO[C@H]2[C@@H]1OC[C@@H]2/C=C\c1ccccc1` [Example 329, 1-(3-Fluoro-phenyl)-3-[(3S,3aR,6S,6aR)-6-((Z)-styryl)-hexahydro-furo[3,2-b]furan-3-yl]-urea]: the IC50 was 0.095 µM. The value for `Cc1cc(C)cc(NC(=O)NC2COC3C(CCc4ccsc4)COC23)c1` [Example 362, 1-(3,5-Dimethyl-phenyl)-3-[(3S,3aR,6R)-6-((S)-2-thiophen-3-yl-ethyl)-hexahydro-furo[3,2-b]furan-3-yl]-urea] was 0.009 µM; that for `O=C(NC1CCCCC1)N[C@H]1CO[C@H]2[C@@H]1OC[C@@H]2Nc1nccs1` [Example 13, 1-Cyclohexyl-3-[(3S,3aR,6S,6aR)-6-(thiazol-2-ylamino)-hexahydro-furo[3,2-b]furan-3-yl]-urea] was 0.167 µM; that for `O=C(NC1CCCCC1)N[C@H]1CO[C@H]2[C@@H]1OC[C@@H]2Oc1cccc(N2CCOCC2)c1` [Example 100, 1-Cyclohexyl-3-[(3S,3aR,6S,6aS)-6-(3-morpholin-4-yl-phenoxy)-hexa-hydro-furo[3,2-b]furan-3-yl]-urea] was 0.002 µM. As for `O=C(Nc1ccc(F)cc1)NC1COC2C(C#Cc3ccccc3)COC12` [Example 292, 1-(4-Fluoro-phenyl)-3-[(3S,3aR,6R)-6-((S)-phenylethynyl)-hexahydro-furo[3,2-b]furan-3-yl]-urea], the IC50 came out at 0.046 µM. The value for `CCN1CC(CNC(=O)N[C@H]2CO[C@H]3[C@@H]2OC[C@@H]3Oc2cccnc2C)CC1=O` (stereo partly drawn) [Example 254, 1-(1-Ethyl-5-oxo-pyrrolidin-3-ylmethyl)-3-[(3S,3aR,6S,6aS)-6-(2-methyl-pyridin-3-yloxy)-hexahydro-furo[3,2-b]furan-3-yl]-urea] was 0.882 µM; that for `Cn1ccnc1-c1ccc(O[C@H]2CO[C@H]3[C@@H]2OC[C@@H]3NC(=O)NC2CCCCC2)cc1` [Example 32, 1-Cyclohexyl-3-{(3S,3aR,6S,6aS)-6-[4-(1-methyl-1H-imidazol-2-yl)-phenoxy]-hexahydro-furo[3,2-b]furan-3-yl}-urea] was 0.003 µM; that for `Cc1nc(CCNC(=O)N[C@H]2CO[C@H]3[C@@H]2OC[C@@H]3Oc2cccnc2C)cs1` [Example 218, 1-[(3S,3aR,6S,6aS)-6-(2-Methyl-pyridin-3-yloxy)-hexahydro-furo[3,2-b]furan-3-yl]-3-[2-(2-methyl-thiazol-4-yl)-ethyl]-urea] was 0.389 µM. The value for `O=C(NC1CCCCC1)N[C@H]1CO[C@H]2[C@@H]1OC[C@@H]2Oc1ccc(N2CCOCC2)nc1` [Example 73, 1-Cyclohexyl-3-[(3S,3aR,6S,6aS)-6-(6-morpholin-4-yl-pyridin-3-yloxy)-hexahydro-furo[3,2-b]furan-3-yl]-urea] was 0.004 µM. With `O=C(Nc1ccc(OC(F)(F)F)cc1)N[C@H]1CO[C@H]2[C@@H]1OC[C@@H]2/C=C\c1ccsc1` [Example 345, 1-[(3S,3aR,6S,6aR)-6-((Z)-2-Thiophen-3-yl-vinyl)-hexahydro-furo[3,2-b]furan-3-yl]-3-(4-trifluoromethoxy-phenyl)-urea], the IC50 was 0.011 µM. In the case of `O=C(NC1CCCCC1)N[C@H]1CO[C@H]2[C@@H]1OC[C@@H]2C#Cc1ccccn1` [Example 300, 1-Cyclohexyl-3-((3S,3aR,6S,-6aR)-6-pyridin-2-ylethynyl-hexahydro-furo[3,2-b]furan-3-yl)-urea; trifluoroacetate], the IC50 came to 0.019 µM. The value for `Cc1ncccc1O[C@H]1CO[C@H]2[C@@H]1OC[C@@H]2NC(=O)NC(C)c1c(C)nn(C)c1C` (stereo partly drawn) [Example 234, 1-[(3S,3aR,6S,6aS)-6-(2-Methyl-pyridin-3-yloxy)-hexahydro-furo[3,2-b]furan-3-yl]-3-[1-(1,3,5-trimethyl-1H-pyrazol-4-yl)-ethyl]-urea] was 0.172 µM.

By IC50 is commonly meant the concentration at which inhibition is half-maximal.
